Data on two compounds can be found in patent US10603304B1, “Compositions and methods for treating anxiety” (priority 2015, dated 2020).

In assay [1] the test system is lynx2KO mice. In words: light dark box experiment (latency to enter dark enclosed environment). Type of assay: in vivo. To be noted: lynx2KO mice under chronic stress with administration of mec, as opposed to lynx2KO mice without mec (FIG. 2A). The text has this:
FIG. 2A is a graph of the time in seconds (latency) for wild type (WT) (black bars) or lynx2 knock out (KO) (white bars) mice to enter a dark enclosed environment under conditions of saline, chronic stress, or chronic stress with administration of mecamylamine (mec) as indicated, according to embodiments of the present invention.

In assay [2] the test system is lynx2KO mice. The assay is described as follows: fear extinction experiment (fear associated with a noise after shock training). To be noted: lynx2KO mice with administration of mec compared to lynx2KO mice without mec (FIGS. 2B-2C). Type of assay: in vivo. Here is the method: FIG. 2B is a graph of fear observed in wild type (black circles) and lynx2KO mice (white triangles) after fear training (an electric shock depicted in yellow) associated with a noise for 24 hours followed by the same noise without the shock to measure the mouse's capability to lose the fear, according to embodiments of the present invention.
FIG. 2C is a graph of fear observed in lynx2KO mice during the fear extinction experiment of FIG. 2B with a group of lynx2KO mice receiving mecamylamine (mec), according to embodiments of the present invention.

In assay [3] the test system is amygdala (EC) neurons of lynx2KO mice. The assay is described as follows: long term depression (LTD) of evoked fEPSPs in brain slices after theta pulse stimulations. Type of assay: cell-based. To be noted: brain slices from lynx2KO mice in ACSF solution with 20 mM methyllycaconitine (MLA), theta pulse stimulations (FIG. 4D). Here is the method: FIG. 4D is a graph of stimulating electrode traces from long term depression (LTD) experiments using extracellular recordings for evoked field excitatory post-synaptic potentials (fEPSPs) in […] (EC) brain slices in ACSF solution with […] methyllycaconitine (MLA) from lynx2 knockout (KO) mice before (left of zero minutes) and after (right of zero minutes) theta pulse stimulations (TSP), according to embodiments of the present invention.
The animals were anesthetized by isoflurane in an anesthetic chamber to a tolerant state (ml/kg) and euthanized through decapitation. […]
Field excitatory postsynaptic potentials (fEPSPs) were evoked by 0.05 Hz test stimulus though a bipolar stimulating electrode placed on external Capsule (EC), and a glass pipette as recording electrode was filled with ACSF and placed in BLA. […] Access resistances were continuously monitored and neurons with more than 20% change of series resistance were excluded from data analysis.
The plasticity ratio was calculated from the average EPSP amplitude of the last 10 mins of baseline recording and the last 15 mins after high frequency or low stimulus, for LTP and LTD studies, respectively. […] For all experiments, treatment effects were analyzed with one-way ANOVA, followed by the appropriate post hoc tests. […]

As for `CNC1(C)C2CCC(C2)C1(C)C` (stereo not drawn) [mecamylamine], in assay [1], the latency to dark entry is “increased latency to dark”. Besides, the “ability to unlearn a fear associated with a noise (fear extinction)” value in assay [2] is on record as “increased ability to unlearn a fear”. For the compound `CCN1C[C@]2(COC(=O)c3ccccc3N3C(=O)C[C@H](C)C3=O)CC[C@H](OC)[C@@]34[C@@H]5C[C@H]6[C@H](OC)[C@@H]5[C@](O)(C[C@@H]6OC)[C@@](O)([C@@H](OC)[C@H]23)[C@@H]14` [methyllycaconitine], the “rescue of induced long term depression (LTD)” value in assay [3] is on record as “able to rescue induced long term depression (LTD)”.
